Experimental findings from patent US20240360114A1 (SIRONAX LTD., priority 2021, published 2024) are described below.

SMILES strings stand for the structures.

By EC50 is commonly meant the concentration at which the effect is half-maximal. A higher EC50 goes with lower potency in that assay.

The experiment concerns HT-1080 cells. Briefly: HT-1080 cell viability assay (ferroptosis induced by RSL3, Cell Titer-Glo). It counts as cell-based. The settings on record: Homo sapiens, HT-1080, 20 h, ferroptosis inducer RSL3, 20 hours, ferroptosis inhibitory activity, Table 2. In a few lines:
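EC50 fitted by sigmoidal dose-response regression on luminescent viability data normalized to untreated cells. Compounds ran as a 10-point, 3-fold series from 1.1 μM alongside RSL3 for 20 hours, after overnight seeding.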
In general terms: ATP-based viability assays read luminescence as a measure of living cells.
The compound `CC1CN(c2ccc(NC[C@H]3CC[C@H](N)CC3)cc2C#N)CC(C)O1` (stereo partly shown) [Compound 468, 5-((((1r,4r)-4-aminocyclohexyl)methyl)amino)-2-(2,6-dimethylmorpholino)-benzonitrile] registered a concentration for a half-maximal effect (EC50) of 0.1 to 100 nM.

`Cc1c(N2CC(C)OC(C)C2)ccc(NC[C@H]2CC[C@H](N)CC2)c1F` (stereo partly shown) [Compound 469, N-(((1r,4r)-4-aminocyclohexyl)methyl)-4-(2,6-dimethylmorpholino)-2-fluoro-3-methylaniline]: the EC50 is 100 to 1000 nM.

As for `CCOCCOC1CCN(c2ccc(NC3CC4(CC(N)C4)C3)c(C)c2)CC1` (stereo not shown) [Compound 470, N2-(4-(4-(2-ethoxyethoxy)piperidin-1-yl)-2-methylphenyl)spiro[3.3]heptane-2,6-diamine], the EC50 lay within 0.1 to 100 nM.

For the compound `CCOC1CCN(c2ccc(NC3CC4(CC(N)C4)C3)c(C)c2)CC1` (stereo not shown) [Compound 471, N2-(4-(4-ethoxypiperidin-1-yl)-2-methylphenyl)spiro[3.3]heptane-2,6-diamine], the EC50 is 0.1 to 100 nM.

As for `N[C@H]1CC[C@H](CNc2ccc(N3CC4CCC(C3)O4)c(F)c2)CC1` [Compound 472, N-(((1r,4r)-4-aminocyclohexyl)methyl)-4-(8-oxa-3-azabicyclo[3.2.1]octan-3-yl)-3-fluoroaniline], the EC50 fell in the range of 0.1 to 100 nM.

In the case of `COCCOc1cc(NC2CCC(N)CC2)ccc1N1CCC(C(F)(F)F)CC1` (stereo not shown) [Compound 473, N1-(3-(2-methoxyethoxy)-4-(4-(trifluoromethyl)piperidin-1-yl)phenyl)cyclohexane-1,4-diamine], the EC50 lay in the range of 0.1 to 100 nM.

`Cc1nc(N2CC(C)OC(C)C2)ccc1NC1C2CC3CC1CC(N)(C3)C2` (stereo not shown) [Compound 474A, N^4-(6-(2.6-dimethylmorpholino)-2-methylpyridin-3-yl)adamantane-1,4-diamine]: the EC50 is 0.1 to 100 nM.

`Cc1nc(N2CC(C)OC(C)C2)ccc1NC1C2CC3CC1CC(CN)(C3)C2` (stereo not shown) [Compound 475A, N-(5-(aminomethyl)adamantan-2-yl)-6-(2,6-dimethylmorpholino)-2-methylpyridin-3-amine] had an EC50 of 0.1 to 100 nM.

For `Cc1cc(NC2CC3(CC(N)C3)C2)c(C)nc1N1CC(C)OC(C)C1` (stereo not shown) [Compound 476, N2-(6-(2,6-dimethylmorpholino)-2,5-dimethylpyridin-3-yl)spiro[3.3]heptane-2,6-diamine], the EC50 was in the range of 0.1 to 100 nM.

The compound `CC1CN(c2ccc(NC3CC4(CC(N)C4)C3)cn2)CC(C)O1` (stereo not shown) [Compound 477, N2-(6-(2,6-dimethylmorpholino)pyridin-3-yl)spiro[3.3]heptane-2,6-diamine] returned an EC50 of 100 to 1000 nM.

With `C[C@H]1CN(c2ccc(NC[C@H]3CC[C@H](N)CC3)cc2F)C[C@H](C)O1` [Compound 478, N-(((1r,4S)-4-aminocyclohexyl)methyl)-4-((2S,6S)-2,6-dimethylmorpholino)-3-fluoroaniline], the EC50 was in the range of 0.1 to 100 nM.

With `Cc1nc(N2C[C@H](C)O[C@@H](C)C2)ccc1NC1CC2(CC(N)C2)C1` (stereo partly drawn) [Compound 479, N2-(6-((2S,6S)-2,6-dimethylmorpholino)-2-methylpyridin-3-yl)spiro[3.3]heptane-2,6-diamine], the EC50 fell in the range of 0.1 to 100 nM.

Regarding `CC1CN(c2cc(F)c(NC[C@H]3CC[C@H](N)CC3)cc2F)CC(C)O1` (stereo partly shown) [Compound 481, N-(((1r,4r)-4-aminocyclohexyl)methyl)-4-(2,6-dimethylmorpholino)-2,5-difluoroaniline], the concentration giving a half-maximal response (EC50) lay in the range of 100 to 1000 nM.

`Cc1cc(N2CC3(COC3)C2)ccc1NC1CC2(CC(N)C2)C1` (stereo not shown) [Compound 482, N2-(2-methyl-4-(2-oxa-6-azaspiro[3.3]heptan-6-yl)phenyl)spiro[3.3]heptane-2,6-diamine] gave an EC50 of 0.1 to 100 nM.

`CC1CN(c2ccc(NC[C@H]3CC[C@H](N)CC3)c(Cl)c2)CC(C)O1` (stereo partly shown) [Compound 483, N-(((1r,4r)-4-aminocyclohexyl)methyl)-2-chloro-4-(2,6-dimethylmorpholino) aniline] registered a concentration for a half-maximal effect (EC50) of 0.1 to 100 nM.

Consider `CC1CN(c2ccc(NC[C@H]3CC[C@H](N)CC3)c(C#N)c2)CC(C)O1` (stereo partly shown) [Compound 484, 2-((((1r,4r)-4-aminocyclohexyl)methyl)amino)-5-(2,6-dimethylmorpholino) benzonitrile], for which the half-maximal effective concentration (EC50) fell in the range of 1000 to 10000 nM.

In the case of `NC1CCC(Nc2ccc(N3CCC(C(F)(F)F)CC3)cc2OCCO)CC1` (stereo not shown) [Compound 485, 2-(2-((4-aminocyclohexyl)amino)-5-(4-(trifluoromethyl)piperidin-1-yl)phenoxy) ethan-1-ol], the concentration giving a half-maximal response (EC50) lay within 0.1 to 100 nM.

`Cc1nc(N2CC3CCC(C2)O3)ccc1NC1CC2(CC(N)C2)C1` (stereo not shown) [Compound 486, N2-(6-(8-oxa-3-azabicyclo[3.2.1]octan-3-yl)-2-methylpyridin-3-yl)spiro[3.3]heptane-2,6-diamine] displayed an EC50 of 0.1 to 100 nM.

For the compound `Cc1cc(N2C[C@@H](C)O[C@@H](C)C2)ncc1NC1CC2(CC(N)C2)C1` (stereo partly drawn) [Compound 487, N2-(6-((2S,6R)-2,6-dimethylmorpholino)-4-methylpyridin-3-yl)spiro[3.3]heptane-2,6-diamine], the EC50 fell in the range of 100 to 1000 nM.

`Cc1nc(N2C[C@@H](C)O[C@@H](C)C2)ccc1NC1CC2(CC(N)C2)C1` (stereo partly shown) [Compound 488A, N2-(6-(2,6-dimethylmorpholino)-2-methylpyridin-3-yl)spiro[3.3]heptane-2,6-diamine]: the EC50 fell in the range of 0.1 to 100 nM.

`Cc1cc(NC2CC(C(=O)NN)C2)ccc1N1CCC(C)CC1` (stereo not shown) [Compound 489] came in with a half-maximal effective concentration (EC50) of 0.1 to 100 nM.

Turning to `Cc1nc(N2CC(C)OC(C)C2)ccc1NCCC1CCC(N)C1` (stereo not shown) [Compound 490, N-(2-(3-aminocyclopentyl)ethyl)-6-(2,6-dimethylmorpholino)-2-methylpyridin-3-amine], the 50% effective concentration (EC50) was 0.1 to 100 nM.

In turn, `Cc1nc(N2CC3CCC2CO3)ccc1NC1CC2(CC(N)C2)C1` (stereo not shown) [Compound 491, N2-(6-(2-oxa-5-azabicyclo[2.2.2]octan-5-yl)-2-methylpyridin-3-yl)spiro[3.3]heptane-2,6-diamine] yielded an EC50 of 0.1 to 100 nM.

`Cc1cc(NC2CCCCC2C(N)=O)ccc1N1CCC(C)CC1` (stereo not shown) [Compound 492, 2-((3-methyl-4-(4-methylpiperidin-1-yl)phenyl)amino)cyclohexane-1-carboxamide] yielded an EC50 of 0.1 to 100 nM.

`Cc1nc(N2CC(C)N(CC(F)(F)F)C(C)C2)ccc1NC1CC2(CC(N)C2)C1` (stereo not shown) [Compound 493, N2-(6-(3,5-dimethyl-4-(2,2,2-trifluoroethyl)piperazin-1-yl)-2-methylpyridin-3-yl)spiro[3.3]heptane-2,6-diamine]: the EC50 lay in the range of 0.1 to 100 nM.

Take `Cc1nc(N2CC3(CCOCC3)C2)ccc1NC1CC2(CC(N)C2)C1` (stereo not shown) [Compound 494, N2-(2-methyl-6-(7-oxa-2-azaspiro[3.5]nonan-2-yl)pyridin-3-yl)spiro[3.3]heptane-2,6-diamine]: the EC50 fell in the range of 100 to 1000 nM.

For the compound `COc1cc(NC[C@H]2CC[C@H](N)CC2)ccc1N1C[C@@H](C)O[C@@H](C)C1` [Compound 495, N-(((1r,4R)-4-aminocyclohexyl)methyl)-4-((2S,6R)-2,6-dimethylmorpholino)-3-methoxyaniline], the concentration giving a half-maximal response (EC50) was in the range of 100 to 1000 nM.

Compound `COc1cc(N2CC(C)OC(C)C2)ccc1NC[C@H]1CC[C@H](N)CC1` (stereo partly shown) [Compound 497, N-(((1r,4r)-4-aminocyclohexyl)methyl)-4-(2,6-dimethylmorpholino)-2-methoxyaniline] had an EC50 of 0.1 to 100 nM.
